One experiment deals with MCF7. In words: Cytotoxicity against human MCF7 cells. In kind it is functional, cell-based.
A further experiment concerns Staphylococcus aureus. The experiment can be described thus: Antibacterial activity against Staphylococcus aureus. In kind it is functional.
The next experiment concerns Pseudomonas aeruginosa. The experiment can be described thus: Antibacterial activity against Pseudomonas aeruginosa. It counts as functional.
The next experiment concerns Escherichia coli. The experiment can be described thus: Antibacterial activity against Escherichia coli. It counts as functional.
A further experiment relates to Candida albicans. The experiment can be described thus: Antifungal activity against Candida albicans. In kind it is functional.
A further experiment concerns Aspergillus niger. In words: Antifungal activity against Aspergillus niger. It counts as functional.
For experiment [1], the system named is Rattus norvegicus. In words: Antiinflammatory activity against rat assessed as inhibition of carrageenan-induced paw edema relative to control. In kind it is functional. Also noted: concentration or dose not given beside the values. A general note: Carrageenan injected into the paw causes an acute inflammation.
Experiment [2] can be described thus: Antioxidant activity assessed as DPPH radical scavenging activity. It counts as functional. In general terms: The DPPH test is a chemical assay of radical scavenging.
Experiment [3] deals with T1, Prostaglandin G/H synthase 1 (Ovis aries, UniProt P05979).
T1 sequence (P05979 whole entry): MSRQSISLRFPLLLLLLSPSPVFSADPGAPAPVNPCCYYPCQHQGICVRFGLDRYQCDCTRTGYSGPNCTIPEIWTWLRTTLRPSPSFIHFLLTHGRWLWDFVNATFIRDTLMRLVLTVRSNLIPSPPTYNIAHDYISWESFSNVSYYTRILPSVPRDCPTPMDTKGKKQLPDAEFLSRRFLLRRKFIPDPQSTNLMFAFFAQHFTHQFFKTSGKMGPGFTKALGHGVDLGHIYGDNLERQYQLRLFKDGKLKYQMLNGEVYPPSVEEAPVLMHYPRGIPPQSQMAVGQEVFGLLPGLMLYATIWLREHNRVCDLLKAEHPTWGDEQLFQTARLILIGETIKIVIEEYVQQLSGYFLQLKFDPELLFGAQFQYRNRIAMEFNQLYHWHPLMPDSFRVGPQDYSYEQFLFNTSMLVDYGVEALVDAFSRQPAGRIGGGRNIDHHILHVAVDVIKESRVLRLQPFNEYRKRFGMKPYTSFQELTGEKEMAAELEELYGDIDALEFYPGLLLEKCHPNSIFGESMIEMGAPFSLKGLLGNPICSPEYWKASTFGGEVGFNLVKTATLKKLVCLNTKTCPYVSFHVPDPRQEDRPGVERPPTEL
In words: Inhibition of ovine COX-1.

The species entered for a further experiment is Ovis aries. In words: Selectivity index, ratio of IC50 for ovine COX-1 to IC50 for ovine COX-2.
Experiment [4] deals with Rattus norvegicus. In words: Antiinflammatory activity against rat assessed as inhibition of carrageenan-induced paw edema. In kind it is functional.
The subject of experiment [5] is Ehrlich. In words: Cytotoxicity against mouse Ehrlich ascites cells assessed as dead cells at 100 ug/ml. To be noted: dose 100 µg/ml. It counts as functional.
Experiment [6] has as its system Ehrlich. The experiment can be described thus: Cytotoxicity against mouse Ehrlich ascites cells assessed as dead cells at 500 ug/ml. In kind it is functional. To be noted: dose 500 µg/ml.
Experiment [7] relates to Ehrlich. In words: Cytotoxicity against mouse Ehrlich ascites cells assessed as dead cells at 25 ug/ml. It counts as functional. As to conditions: dose 25 µg/ml.
For the next experiment, the system named is Bacillus subtilis. In words: Antibacterial activity against Bacillus subtilis. In kind it is functional.
The test system of the next experiment is Streptococcus pyogenes. The experiment can be described thus: Antibacterial activity against Streptococcus pyogenes. It counts as functional.
A short description of experiment [8]: Antioxidant activity assessed as ABTS radical scavenging activity. It counts as functional.

Converted amounts (≈) assume the structure as drawn.

Broadly, the IC50 is the point on the concentration scale where inhibition reaches its midpoint. As for `Cc1c(-n2cc(C#N)c(=O)n(-c3ccc(I)cc3)c2=S)c(=O)n(-c2ccccc2)n1C`, the IC50 with MCF7 came out at 30.7 µM.

Broadly, the MIC is the smallest concentration in the dilution series that meets the test's criterion for growth inhibition. With `COc1ccc(N/N=C2\C(=O)N(CC(=O)n3[nH]c(N)cc3=O)N=C2C(F)(F)F)cc1`, the minimum inhibitory concentration (MIC) was determined as 8.02 µg/mL (≈ 18.9 µM) with Staphylococcus aureus; 9.58 µg/mL (≈ 22.5 µM) in the experiment on Pseudomonas aeruginosa; 15.3 µg/mL (≈ 35.9 µM) against Escherichia coli; 9.22 µg/mL (≈ 21.7 µM) against Candida albicans; 5.3 µg/mL (≈ 12.5 µM) with Aspergillus niger.

For `CC1=NN(c2ccccc2)C(=O)C1c1cc(-c2ccc(O)cc2)nc(N)n1` (configuration not stated), the Activity with Rattus norvegicus [1] was found to be 61.84%.

Turning to `COc1ccc(-c2cc(C3C(=O)N(c4ccccc4)N=C3C)nc(N)n2)cc1` (configuration not stated), the Activity with Rattus norvegicus [1] amounted to 61.02%.

Turning to `CC1=NN(C(=S)NN)C(=O)/C1=N/Nc1ccc(Cl)cc1`, the values for the minimal inhibitory concentration (MIC) with Escherichia coli, with Candida albicans and against Aspergillus niger were 188 µg/mL (≈ 603 µM), 15.6 µg/mL (≈ 50.2 µM) and 5.8 µg/mL (≈ 18.7 µM), respectively.

As to `CCCOC(=O)c1cc(O)c(O)c(O)c1` [PROPYL GALLATE], the concentration for half-maximal inhibition (IC50) in [2] came to 30.3 µM.

Usually ED50 stands for the midpoint of the dose-response relation. On to `Cc1[nH]n(-c2ccccc2)c(=O)c1CNc1ccc(S(N)(=O)=O)cc1`, for which, in the experiment on Rattus norvegicus [1], the Activity turned out to be 92%. Further, the IC50 in [3] was > 100 µM. Besides, the Ratio IC50 in the experiment listed under Ovis aries was > 100. Also, the ED50 with Rattus norvegicus [4] was found to be 109 mg/kg.

`Nc1cc(=O)n(C(=O)CN2N=C(C(F)(F)F)/C(=N/Nc3ccc(Br)cc3)C2=O)[nH]1`: the minimum inhibitory concentration (MIC) against Staphylococcus aureus worked out at 7.96 µg/mL (≈ 16.8 µM); against Pseudomonas aeruginosa it was 10.2 µg/mL (≈ 21.6 µM); in the experiment on Escherichia coli it was 13.3 µg/mL (≈ 28 µM); in the experiment on Candida albicans, 8.58 µg/mL (≈ 18.1 µM); in the experiment with Aspergillus niger it was 7.52 µg/mL (≈ 15.9 µM).

`CCOC(=O)c1c(N/N=C2/C(=O)NN=C2N)sc2c1CCCC2`: the values for the Activity with Ehrlich [5], with Ehrlich [6] and with Ehrlich [7] were 98.1%, 79% and 60%, respectively.

With `CCOC(=O)c1c(N/N=C2/C(=O)NN=C2C)sc2c1CCCC2`, the Activity in the experiment on Ehrlich [5] worked out at 79.4%; with Ehrlich [6], 71%; with Ehrlich [7], 43%.

For `Cc1c(-n2cc(C#N)c(=O)n(-c3ccc(S(=O)(=O)c4ccc(-n5c(=O)c(C#N)cn(-c6c(C)n(C)n(-c7ccccc7)c6=O)c5=S)cc4)cc3)c2=S)c(=O)n(-c2ccccc2)n1C`, the IC50 in the experiment with MCF7 is 37.2 µM.

For the molecule `CC1=NN(C(=S)NN)C(=O)/C1=N/Nc1ccc(C)cc1`, the values for the MIC against Escherichia coli, against Candida albicans and with Aspergillus niger were 125 µg/mL (≈ 431 µM), 7.8 µg/mL (≈ 26.9 µM) and 2.9 µg/mL (≈ 9.99 µM), respectively.

Consider `N#Cc1c(N/N=C2/C(=O)NN=C2N)sc2c1CCCC2`, for which the Activity is recorded as 100% in the experiment with Ehrlich [5], 98.6% in the experiment with Ehrlich [6] and 94% in the experiment with Ehrlich [7].

Consider `CCOc1ccc(N/N=C2\C(=O)N(CC(=O)n3[nH]c(N)cc3=O)N=C2C(F)(F)F)cc1`, for which the MIC in the experiment on Staphylococcus aureus came to 12 µg/mL (≈ 27.4 µM); in the experiment with Pseudomonas aeruginosa, 11.9 µg/mL (≈ 27.1 µM); against Escherichia coli, 26.7 µg/mL (≈ 60.8 µM); with Candida albicans it was 9.08 µg/mL (≈ 20.7 µM); in the experiment on Aspergillus niger, 6.28 µg/mL (≈ 14.3 µM).

As to `CC1=NN(c2ccccc2)C(=O)C1c1cc(-c2ccc(N(C)C)cc2)nc(N)n1` (configuration not stated), in the experiment with Rattus norvegicus [1], the Activity was 62%.

As to `Nc1cc(=O)n(C(=O)CN2N=C(C(F)(F)F)/C(=N/Nc3ccc(Cl)cc3)C2=O)[nH]1`, the MIC in the experiment with Staphylococcus aureus is 7.3 µg/mL (≈ 17 µM); in the experiment with Pseudomonas aeruginosa, 7.39 µg/mL (≈ 17.2 µM); against Escherichia coli, 12.7 µg/mL (≈ 29.5 µM); against Candida albicans, 6.18 µg/mL (≈ 14.4 µM); with Aspergillus niger it was 6.8 µg/mL (≈ 15.8 µM).

In the case of `O=C1/C(=C\c2coc3ccccc3c2=O)C(C(F)(F)F)=NN1c1c(F)c(F)cc(F)c1F`, the minimal inhibitory concentration (MIC) in the experiment on Staphylococcus aureus was 62.5 µg/mL (≈ 137 µM); with Bacillus subtilis it was 62.5 µg/mL (≈ 137 µM); against Streptococcus pyogenes, 200 µg/mL (≈ 438 µM); against Pseudomonas aeruginosa it was 500 µg/mL (≈ 1100 µM); in the experiment with Escherichia coli, 500 µg/mL (≈ 1100 µM); in the experiment on Candida albicans, 250 µg/mL (≈ 548 µM). In addition, in the experiment on Aspergillus niger, the MIC was > 1000 µg/mL.

For `NC1=NNC(=O)C1(CCS(=O)(=O)c1ccccc1)CCS(=O)(=O)c1ccccc1`, the minimum inhibitory concentration (MIC) against Staphylococcus aureus, with Bacillus subtilis and against Aspergillus niger was 100 µg/mL (≈ 230 µM) each time.

As to `NC(=O)c1c(N/N=C2/C(=O)NN=C2N)sc2c1CCCC2`, the figures for the Activity in the experiment with Ehrlich [5], in the experiment on Ehrlich [6] and with Ehrlich [7] were 98.4%, 81% and 65%, respectively.

Consider `CC1=NN(c2nc(-c3ccccc3)cs2)C(=O)C1C(=S)Nc1ccccc1` (configuration not stated), for which the Activity in [8] amounted to 88.6%.

In the case of `CCCCNc1nc2ccccc2n1C1=NN=C(O)C1`, the Activity in the experiment with Rattus norvegicus [1] worked out at 61%. In the experiment filed under Ovis aries, the Ratio IC50 stood at 4.84.

Take `CCCC1=NN(c2c(F)c(F)cc(F)c2F)C(=O)/C1=C\c1cn(-c2ccccc2)nc1-c1ccc(Cl)cc1`: the minimal inhibitory concentration (MIC) against Staphylococcus aureus came to 100 µg/mL (≈ 186 µM); against Bacillus subtilis it was 100 µg/mL (≈ 186 µM); with Streptococcus pyogenes it was 100 µg/mL (≈ 186 µM); against Pseudomonas aeruginosa it was 200 µg/mL (≈ 371 µM); in the experiment on Escherichia coli, 62.5 µg/mL (≈ 116 µM); against Candida albicans, 1000 µg/mL (≈ 1860 µM). The minimal inhibitory concentration (MIC) against Aspergillus niger was > 1000 µg/mL.

Regarding `CC1=NNC(=O)/C1=N/Nc1sc2c(c1C#N)CCCC2`, the Activity is listed as 84% in the experiment on Ehrlich [5], 53.3% with Ehrlich [6] and 29.8% in the experiment with Ehrlich [7].

For `COc1cc(-c2cc(C3C(=O)N(c4ccc([N+](=O)[O-])cc4[N+](=O)[O-])N=C3C)nc(N)n2)ccc1O` (configuration not stated), the Activity in the experiment with Rattus norvegicus [1] was 62.51%.

The values above are taken from ChEMBL document CHEMBL5233210, “Pyrazolone structural motif in medicinal chemistry: Retrospect and prospect” (Eur J Med Chem, 2020).
